From US20020170080A1, “Alpha-tocopherol transfer protein knockout animals” (The Regents of the University of California, priority 2000, published 2002)

Legend:
Ttpa^−/− females = test: Vitamin E supplementation of the diet and the fertility defect of Ttpa−/− female mice; assay type: in vivo, mouse; settings: vitamin E supplementation 1000 IU/kg of diet, data not shown
From the text: Ttpa^−/− mice were generally healthy. Offspring from heterozygous intercrosses were born with the expected Mendelian distribution. Ttpa^−/− mice at 18 months of age had no obvious signs of neurological disease. In contrast, humans with α-TTP gene defects develop ataxia with vitamin E deficiency by the first decade of life (Sokol et al. (1988) J. Lab. Clin. Med. 111: 548-559; Ouahchi et al. (1995) Nat. Genet. 9: 141-145; Hentati et al. (1996) Ann. Neurol. 39: 295-300). […] Ttpa^−/− males had no obvious impairment in fertility.

apo E^−/− mice = settings: apo E−/− mice fed a chow diet, vitamin E supplementation; cited from earlier work
femoral artery lesions = settings: human clinical trial; cited from earlier work
[1] = tested on: abdominal aortas or iliac arteries; settings: nonhuman primates; cited from earlier work

Molecule | effect on fertility defect (Ttpa^−/− females) | levels of atherosclerosis (apo E^−/− mice) | progression of femoral artery lesions (femoral artery lesions) | lesion development in abdominal aortas or iliac arteries [1]
vitamin E | completely reversed the fertility defect | decreased levels of atherosclerosis | – | –
CC(C)(Sc1cc(C(C)(C)C)c(O)c(C(C)(C)C)c1)Sc1cc(C(C)(C)C)c(O)c(C(C)(C)C)c1 [probucol] | – | – | did not prevent progression of femoral artery lesions | did not prevent
